The text below walks through data of patent publication US20130012709A1, “NOVEL INHIBITORS OF STEAROYL-CoA-DESATURASE-1 AND THEIR USES” (CENTRE NATIONAL DE LA RECHERCHE SCIENTIFIQUE, priority 2009, published 2013).

Like-named read-outs stand apart in the source and are kept apart here.

In one test the test system is SCDs. The experiment in a line: Determination of SCD activity in transformed MEFs. Format: cell-based, mouse. Conditions: 25 μM. The method, then:
Subconfluent LNCaP, C4-2, PNT2 of Ras SV40 MEFs cells grown in 6-wells plate were incubated with the tested inhibitor at 25 μM for 2 h in serum and fatty acid-free DMEM media supplemented 0.2% BSA. In this environment, the cells are solely dependent on endogenous fatty acid synthesis for production of storage, structural and signaling lipids. Trace amount of [^14C] palmitic acid were then added to the culture (0.5 μCi/well), and cells were incubated for 6 more hours. At the end of the incubation, total cell lipids were extracted and saponified, then released fatty acids were esterified with boron trifluoride in methanol for 90 min at 100° C. The derived methyl esters were separated by argentation TLC (Thermo Fisher Scientific) following the procedure of Wilson and Sargen, using a solvent phase consisting of hexane:ethyl ether (90:10, by vol) (35). Pure stearic and oleic methyl ester acids were run in parallel to the samples. Air-dried plates were scanned on a Phosphorlmager and fatty acid spots on TLC were analysed with Phosphorlmager software. SCD activity was expressed as the ratio of palmitoleic on palmitic methyl ester acids and normalized to cellular DNA content.

For test [1], the system named is C4-2 cells. The experiment in a line: Proliferation assay (cell counting). Format: cell-based, human. The following applies: C4-2, maximal dose used. The method, then: (§1) At 24 h, 48 h, 72 h and 96 h following addition of increasing concentrations of the tested compound in DMSO or DMSO alone, cells were trypsinized, pelleted by centrifugation at 1200 rpm for 5 min, resuspended in 500 μl of culture medium and counted in an hemocytometer.

For test [2], the system named is LNCaP cells. The experiment in a line: Proliferation assay (cell counting). The class given is cell-based, human. The following applies: maximal dose used. The method, then:
as §1

A further test has as its system PNT2 cells. The experiment in a line: Proliferation assay (cell counting). The class given is cell-based, human. Conditions: non-cancerous PNT2, even at a maximal dose. The method, then: as §1
Test [3] has as its system C4-2 cells. The experiment in a line: Measurement of de novo fatty acid synthesis. The following applies: Homo sapiens, C4-2, 25 μM. Format: cell-based. As for the experimental part: (§2) The tested inhibitor was added overnight at a final concentration of 25 μM to subconfluent cultures of cells grown in 6-wells plate in serum and fatty acid-free DMEM media supplemented with 0.2% BSA. Cultures were then labeled in triplicate with 1.0 μCi of [U—^14C]-palmitate or -stearate for 6 h, and total lipids were folch extracted with chloroform/methanol. Labeled lipids were subjected to TLC in hexane/diethyl ether/acetic acid 90:10:1 (V/V), to separate cholesterol ester, triglycerides and phospholipids. Standards were run for each of the lipid classes. After chromatography, labeled lipid classes were quantified by scintillation counting and radioactivity was normalized to DNA content.

In test [4] the test system is LNCaP cells. The experiment in a line: Measurement of de novo fatty acid synthesis. The class given is cell-based. Conditions: Homo sapiens. The method, then:
as §2

In test [5] the test system is C4-2 cells. The experiment in a line: PI(3,4,5)P3 mass ELISA. Format: cell-based, human. The following applies: C4-2, 25 μM, 24 h, vs non-treated cells. The method, then: (§3) The production of PI(3,4,5)P3 (PIP3) in LNCaP and C4-2 prostate cancer cells was measured 24 h following exposure to control medium or to medium supplemented with the inhibitor tested at 25 μM. The levels of produced PIP3 were quantified after cellular lipids extraction using a PI(3,4,5)P3 mass ELISA kit according to the manufacturer's instruction.
For orientation: ELISA stands for enzyme-linked immunosorbent assay.

The subject of test [6] is LNCaP cells. The experiment in a line: PI(3,4,5)P3 mass ELISA. Format: cell-based, human. Conditions: 25 μM, 24 h, vs non-treated cells. The method, then: as §3
Test [7] has as its system β-catenin-Tcf4 complex in C4-2 cells. The experiment in a line: TCF/LEF-1 reporter (pTOP-FLASH) luciferase assay. Format: cell-based, human. The method, then:
(§4) The transcriptional activity of the β-catenin-Tcf4 complex was analysed by performing transient transfections with 0.25 μg TCF/LEF-1 reporter (pTOP-FLASH) or control vector (pFOP-FLASH).
(§5) Luciferase activities in cell lysates were normalized relative to the β-galactosidase activity to correct for differences in transfection efficiency.

The test system of test [8] is β-catenin-Tcf4 complex in LNCaP cells. The experiment in a line: TCF/LEF-1 reporter (pTOP-FLASH) luciferase assay. The class given is cell-based, human. As for the experimental part:
as §4, §5

The test system of the next test is transformed MEFs. The experiment in a line: Apoptosis, annexinV-FITC flow cytometry. Format: cell-based, mouse. The following applies: all transformed cells, 25 μM, 24 h. As for the experimental part:
Cells were then rinsed in PBS, pelleted at 400 g for 5 min and maintained on ice for 20 min before resuspension in a […] propidium iodide (Sigma) solution. Cells were kept overnight at 4° C. and the percentages of cells in G1, S and G2-M phases of the cell cycle were measured with a Coulter Epics XL™ flow cytometer (Becton Dickinson) using 488-nm laser excitation. For apoptosis experiment, MEFs were treated with the tested compound at 25 μM for 24 h, then rinced in PBS, pelleted at 400 g for 5 min and stained with annexinV-FITC (Roche Diagnostics, Meylan, France) for 15 min at 4° C. The percentage of annexin positive cells was immediately analysed using 488-nm laser excitation.
Background: A flow cytometer gives signals particle by particle.

Setting [9] is: read-out: inhibition of [U-14C]-palmitate incorporation into phospholipids.
Setting [10] is: read-out: inhibition of [U-14C]-palmitate incorporation into sterol esters.
Where [11] appears, read: read-out: inhibition of [U-14C]-palmitate incorporation into triglycerides.
Setting [12] is: read-out: inhibition of [U-14C]-stearate incorporation into phospholipids.
Setting [13] is: read-out: inhibition of [U-14C]-stearate incorporation into sterol esters.
Where [14] appears, read: read-out: inhibition of [U-14C]-stearate incorporation into triglycerides.

For the molecule `COc1ccc(Br)c(C(=O)N2CCN(c3ccc(C(=O)NCCCc4ccccc4)cn3)CC2)c1` [BZ36], in the test on SCDs, the “[14C]-palmitoleic to palmitic methyl ester acids ratio” value is “decreased lipogenesis”. The “inhibition of cell proliferation” value in the test with C4-2 cells [1] and with LNCaP cells [2] was 100% throughout. In the test with PNT2 cells, the effect in proliferation result is reported as “no effect”. Besides, the inhibition at 25 µM in the test on C4-2 cells [3] (setting [9]) worked out at 41%; with C4-2 cells [3] (setting [10]) it was 33%; with C4-2 cells [3] (setting [11]), 24%; in the test with C4-2 cells [3] (setting [12]), 49%; in the test with C4-2 cells [3] (setting [13]), 70%; in the test on C4-2 cells [3] (setting [14]) it was 19%. The inhibition at 25 µM stood at 58% with LNCaP cells [4] (setting [9]); 39% in the test on LNCaP cells [4] (setting [10]); 27% with LNCaP cells [4] (setting [11]); 81% in the test on LNCaP cells [4] (setting [12]); 77% in the test with LNCaP cells [4] (setting [13]); 78% in the test with LNCaP cells [4] (setting [14]). In addition, the “decrease of PI(3,4,5)P3 concentration” value in the test on C4-2 cells [5] is listed as 92%; with LNCaP cells [6], 84%. The “activity of a β-cat reporter” value in test [7] and in test [8] was “decreased activity” in each case. Besides, the “cell death (annexin V-positive cells)” value in the test on transformed MEFs is “strong induction of cell death”.
